We go through 21 compounds from ChEMBL document CHEMBL1133207, “Syntheses and antifilarial profile of 7-chloro-4-(substituted amino) quinolines: a new class of antifilarial agents” (2000).

Active and inactive are the calls of the source. The calls are words filed in the database; no cut-off is given here.

Experiment [1] is filed under the species Mus musculus. Description: The compound was evaluated for sterilization effect on female Acanthocheilonema viteae in Mastomys natalensis; Inactive. The format is functional, organism-based.
The subject of experiment [2] is Mus musculus. Description: In vivo microfilariacidal activity against Acanthocheilonema viteae infection in Mastomys natalensis at 200 mg/kg for 5 days after peroral administration; Inactive. The format is functional, organism-based. Also noted: dose 200 mg/kg.
In experiment [3] the test system is Mus musculus. Put plainly: In vivo macrofilaricidal activity against Acanthocheilonema viteae infection in Mastomys natalensis at 200 mg/kg for 5 days after peroral administration; Inactive. Set-up: dose 200 mg/kg. The format is functional, organism-based.
Experiment [4] in a line: In vivo microfilariacidal activity against Acanthocheilonema viteae infection in Mastomys natalensis at 200 mg/kg for 5 days after peroral administration. Conditions: route oral. The format is functional.
Experiment [5] can be described thus: The compound was evaluated for sterilization effect on female Acanthocheilonema viteae in Mastomys natalensis. Also noted: concentration or dose not given beside the values. In kind it is functional, Mus musculus.
A short description of experiment [6]: In vivo macrofilaricidal activity against Acanthocheilonema viteae infection in Mastomys natalensis at 200 mg/kg for 5 days after peroral administration. The format is functional. The conditions noted are these: route oral.

Consider `NCC(=O)N1CCN(CCNc2ccnc3cc(Cl)ccc23)CC1`, for which the Reduction entry in the experiment filed under Mus musculus [1], with Mus musculus [2] and in the experiment on Mus musculus [3] was “inactive” in each case.
Turning to `CC(C)(C)OC(=O)N1CCCC1C(=O)N1CCN(CCNc2ccnc3cc(Cl)ccc23)CC1` (stereo not drawn), the Reduction entry in the experiment filed under Mus musculus [1], in the experiment with Mus musculus [2] and with Mus musculus [3] was “inactive” each time.
As for `CC(N)C(=O)N1CCN(CCNc2ccnc3cc(Cl)ccc23)CC1` (stereo not drawn), the Reduction in experiment [4] was determined as 0%; in experiment [5], 100%; in experiment [6], 0%.
Turning to `O=[N+]([O-])c1ccc(NNc2ccnc3cc(Cl)ccc23)cc1`, the Reduction was found to be 41% in experiment [4], 50% in experiment [5] and 78% in experiment [6].
For `OCCNc1ccnc2cc(Cl)ccc12`, in that order: 86%, 0% and 22%.
For `CC(C)(C)OC(=O)NC(Cc1ccccc1)C(=O)N1CCN(CCNc2ccnc3cc(Cl)ccc23)CC1` (stereo not drawn), in that order: 0%, 50% and 0%.
As to `CCC(C)C(N)C(=O)N1CCN(CCNc2ccnc3cc(Cl)ccc23)CC1` (stereo not drawn), the Reduction entry in the experiment listed under Mus musculus [1], with Mus musculus [2] and with Mus musculus [3] was “inactive” each time.
With `Clc1ccc2c(NCc3ccco3)ccnc2c1`, the Reduction result in the experiment listed under Mus musculus [1], with Mus musculus [2] and with Mus musculus [3] was “inactive” each time.
As to `N#Cc1ccc(OCCNc2ccnc3cc(Cl)ccc23)cc1`, the Reduction in experiment [4] is 0%; in experiment [5] it was 0%; in experiment [6] it was 56%.
On to `O=[N+]([O-])c1ccc(OCCNc2ccnc3cc(Cl)ccc23)cc1`, for which the Reduction result in the experiment filed under Mus musculus [1], with Mus musculus [2] and in the experiment on Mus musculus [3] was “inactive” throughout.
Take `ClCCNc1ccnc2cc(Cl)ccc12`: the Reduction entry in the experiment listed under Mus musculus [1], in the experiment with Mus musculus [2] and in the experiment with Mus musculus [3] was “inactive” in each case.
As to `CCC(C)C(NC(=O)OC(C)(C)C)C(=O)N1CCN(CCNc2ccnc3cc(Cl)ccc23)CC1` (stereo not drawn), the Reduction entry in the experiment filed under Mus musculus [1], in the experiment with Mus musculus [2] and in the experiment with Mus musculus [3] was “inactive” each time.
In the case of `O=[N+]([O-])c1cc2c(NCCO)ccnc2cc1Cl`, the Reduction in experiment [4] is 0%; in experiment [5] it was 0%; in experiment [6] it was 58%.
As for `CCN(CC)C(=O)N1CCN(C)CC1.O=C(O)CC(O)(CC(=O)O)C(=O)O` [DIETHYLCARBAMAZINE CITRATE], the values for the Reduction in experiment [4], in experiment [5] and in experiment [6] were 90%, 0% and 0%, respectively.
Turning to `NC(Cc1ccccc1)C(=O)N1CCN(CCNc2ccnc3cc(Cl)ccc23)CC1` (stereo not drawn), the Reduction entry in the experiment filed under Mus musculus [1], in the experiment with Mus musculus [2] and with Mus musculus [3] was “inactive” each time.
Take `Clc1ccc2c(NCCN3CCN(c4ccccn4)CC3)ccnc2c1`: the Reduction entry in the experiment listed under Mus musculus [1], with Mus musculus [2] and in the experiment with Mus musculus [3] was “inactive” throughout.
As for `CC(NC(=O)OC(C)(C)C)C(=O)N1CCN(CCNc2ccnc3cc(Cl)ccc23)CC1` (stereo not drawn), the Reduction result in the experiment filed under Mus musculus [1], in the experiment with Mus musculus [2] and with Mus musculus [3] was “inactive” each time.
On to `O=C(O)C(CCCCNc1ccnc2cc(Cl)ccc12)Nc1ccnc2cc(Cl)ccc12` (stereo not drawn), for which the Reduction is on record as 85% in experiment [4], 0% in experiment [5] and 0% in experiment [6].
Turning to `O=C(C1CCCN1)N1CCN(CCNc2ccnc3cc(Cl)ccc23)CC1` (stereo not drawn), the Reduction entry in the experiment filed under Mus musculus [1], in the experiment with Mus musculus [2] and in the experiment on Mus musculus [3] was “inactive” throughout.
Consider `CC(C)(C)OC(=O)NCC(=O)N1CCN(CCNc2ccnc3cc(Cl)ccc23)CC1`, for which the Reduction stood at 0% in experiment [4], 63% in experiment [5] and 0% in experiment [6].
Turning to `Clc1ccc2c(NCCN3CCNCC3)ccnc2c1`, the Reduction result in the experiment listed under Mus musculus [1], in the experiment with Mus musculus [2] and in the experiment on Mus musculus [3] was “inactive” in each case.
